Test system: MCF7 cells expressing ERα Y537S/N/C, D538G
Test: In vitro proliferation of MCF7 lines with ectopic mutant ERα (FIG. 1)
Format: cell-based, human
Details: D538G vs control lines
Procedure: 48 h post-transfection, virus containing media was filtered and added to MCF7 cells in the presence of 8 µg/ml polybrene overnight. Two days following infection, cells were placed under selection with 10 μg/ml blasticidin for 2 weeks for stable expression.
In parallel, cells were also seeded in a separate 96-well plate (8 wells/cell line, control plate) for which a CTG (CellTiter-Glo® Luminescent Viability Assay, Promega, Cat #G7572) was measured the following day (day 0 reading). The day 0 reading was used for the GI50 calculation at the termination of the experiment. The day following seeding, compounds were added to assay plates. Briefly, a 1:4 serial dilution was prepared in DMSO at 200× final concentration for a total of 10 concentrations (9 dilutions containing compound and one is DMSO only). Serially diluted compounds were pipetted into medium to prepare a compound-medium mix at 10× final concentration. 10 μl of compound-medium mix was added to MCF7-WT and -Y537S cells at 3 wells/concentration (triplicate for each concentration). On day 3, media/compound was removed and replaced with fresh media/compound as described above. On day 6, CTG was measured and compared to day 0 readings from control plate to assess GI50.

Structure (SMILES)	Effect of ectopic ERα mutant expression on response to therapy (proliferation)
C[C@]12CC[C@@H]3c4ccc(O)cc4C[C@@H](CCCCCCCCC[S+]([O-])CCCC(F)(F)C(F)(F)F)[C@H]3[C@@H]1CC[C@@H]2O (some centres unmarked) [fulvestrant]	conferred phenotypic resistance
O=C(c1ccc(OCCN2CCCCC2)cc1)c1c(-c2ccc(O)cc2)sc2cc(O)ccc12 [raloxifene]	conferred phenotypic resistance
